Usually half-life stands for the time needed for the level to fall by half in the phase considered.

Where two headings read alike, the source gives them in different places.

The conditions of data set [1]: cited from earlier work.
For data set [2], the system named is Her2-driven breast tumor (BH) model. Nature of the data set: tumor cell proliferation by Ki67 immunohistochemistry. In kind it is in vivo, mouse. The procedure:
(§1) The Her2-driven breast tumor (BH) model used herein has the following genotype: MMTVrTTA, tetO HER2, INK4A(−/−), luciferase reporter.
To determine the mechanism of action of the combination therapy, capecitabine was administered alone and in combination with tivozanib, over two dosage cycles (FIG. 2A). Capecitabine was dosed at 300 mg/kg daily for two weeks, followed by a seven day break, and then an additional two weeks of capecitabine at 300 mg/kg daily. Tivozanib was dosed at 5 mg/kg daily for 5 weeks.

A further data set has as its system tumor blood vessels. Nature of the data set: inhibition of angiogenesis in tumors. It is filed as in vivo, mouse. Conditions: tivozanib 5 mg/kg daily 5 weeks, capecitabine 300 mg/kg daily two weeks, seven day break, FIG. 4. The procedure: An experiment was designed to evaluate the effect of the combination therapy on angiogenesis (FIG. 4). Tivozanib was dosed at 5 mg/kg daily for 5 weeks. Capecitabine was dosed at 300 mg/kg daily for two weeks, followed by a seven day break, and then an additional two weeks of capecitabine at 300 mg/kg daily.

For data set [3] the following is noted: cited from earlier work. The source holds these as a separate data set.
For data set [4] the following is noted: oral administration of capecitabine; human xenograft tumors in mice; cited from earlier work.
Data set [5] relates to Her2-driven breast tumor (BH) model. Nature of the data set: tumor growth in Her2-driven breast tumor (BH) mouse model. In kind it is in vivo. Conditions: tivozanib 5 mg/kg daily, capecitabine 300 mg/kg daily 2 weeks on, 1 week off, oral, more than 4 weeks; FIG. 1. Here is the method:
as §1
When tumors reached approximately 200 mm^3, the mice were randomized into 4 groups of 10 mice each. One group received vehicle control. Each of the other 3 groups were treated with one of the two agents either administered alone or in combination. Both agents were administered orally.
Capecitabine was dosed at 300 mg/kg daily for two weeks followed by a one week break (2 weeks on, 1 week off) for more than 4 weeks.

The next data set addresses VEGF receptor 3 (Homo sapiens, UniProt P35916). Conditions: cited from earlier work.
Data set [6] has as its system thymidine phosphorylase (TP). Nature of the data set: TP expression in murine breast tumors after tivozanib, qRT-PCR.
Method: Murine breast tumors (BH216, BH225, BH229 and BH281) were introduced subcutaneously into nude mice. For each tumor type, when tumors reached approximately 250 mm^3, the mice were randomized into five groups, with three mice in each group. One group received vehicle (0.5% methyl-cellulose) and the remaining groups each received one dose of 5 mg/kg tivozanib. The mice were sacrificed and tumors collected at 0.5, 2, 6 and 16 hours post-dose. RNA was extracted from the tumors and TP expression was analyzed with qRT-PCR.
In data set [7] the test system is thymidine phosphorylase (TP). Nature of the data set: TP induction in BH216-derived primary culture, qRT-PCR. In kind it is cell-based, mouse. Conditions: cultured BH216 tumor cells; 0.01-1000 nM, 3 hours. A general note: Real-time PCR tracks product formation cycle by cycle.
For data set [8] the following is noted: 272-patient Phase 2 clinical trial; cited from earlier work.
Data set [9] relates to thymidine phosphorylase (TP). The settings on record: BH216 tumors; one dose at or about maximum tolerated dosage; tumors collected after 6 hours (also 24 hours for B20-4.1).
Method: Each of the VEGF inhibitors were administered at or about their respective maximum tolerated dosages.
In another data set the test system is tumor. The settings on record: preclinical models; cited from earlier work.

VEGF receptor 3, sequence (P35916 25-1363): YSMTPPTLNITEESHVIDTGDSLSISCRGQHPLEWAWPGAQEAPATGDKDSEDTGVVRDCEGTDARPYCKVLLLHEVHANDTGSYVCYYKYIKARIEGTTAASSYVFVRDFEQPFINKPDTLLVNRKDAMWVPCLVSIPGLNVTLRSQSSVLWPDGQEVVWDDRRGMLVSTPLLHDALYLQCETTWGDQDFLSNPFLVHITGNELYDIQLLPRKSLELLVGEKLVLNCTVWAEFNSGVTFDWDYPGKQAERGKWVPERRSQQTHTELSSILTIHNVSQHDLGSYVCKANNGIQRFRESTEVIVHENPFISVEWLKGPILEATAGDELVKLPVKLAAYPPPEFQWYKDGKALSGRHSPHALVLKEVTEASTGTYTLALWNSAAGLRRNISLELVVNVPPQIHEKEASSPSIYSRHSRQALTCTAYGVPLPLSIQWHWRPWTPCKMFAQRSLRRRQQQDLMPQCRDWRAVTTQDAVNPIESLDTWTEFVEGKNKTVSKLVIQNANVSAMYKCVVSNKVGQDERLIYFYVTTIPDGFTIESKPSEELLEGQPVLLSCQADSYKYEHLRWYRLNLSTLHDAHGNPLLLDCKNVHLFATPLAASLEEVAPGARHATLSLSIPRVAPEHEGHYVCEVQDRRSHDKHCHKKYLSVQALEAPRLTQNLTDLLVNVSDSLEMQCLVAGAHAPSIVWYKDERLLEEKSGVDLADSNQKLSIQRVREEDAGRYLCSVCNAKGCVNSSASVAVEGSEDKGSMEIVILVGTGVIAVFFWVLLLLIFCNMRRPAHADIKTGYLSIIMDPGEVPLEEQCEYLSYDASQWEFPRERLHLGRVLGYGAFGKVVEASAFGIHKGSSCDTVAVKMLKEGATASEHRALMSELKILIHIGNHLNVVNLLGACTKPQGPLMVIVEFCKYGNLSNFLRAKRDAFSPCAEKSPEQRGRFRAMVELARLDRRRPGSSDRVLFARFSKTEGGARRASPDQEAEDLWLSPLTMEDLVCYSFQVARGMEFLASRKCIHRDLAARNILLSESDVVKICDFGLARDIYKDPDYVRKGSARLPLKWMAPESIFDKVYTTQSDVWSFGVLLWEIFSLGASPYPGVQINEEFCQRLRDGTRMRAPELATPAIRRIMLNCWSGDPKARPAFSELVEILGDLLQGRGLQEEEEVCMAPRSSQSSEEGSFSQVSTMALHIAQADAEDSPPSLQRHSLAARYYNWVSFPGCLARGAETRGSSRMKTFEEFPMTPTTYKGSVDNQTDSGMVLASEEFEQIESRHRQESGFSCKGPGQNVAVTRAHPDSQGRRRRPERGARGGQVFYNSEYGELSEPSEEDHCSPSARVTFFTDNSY

For the molecule `CCCCCOC(=O)Nc1nc(=O)n([C@@H]2O[C@H](C)[C@@H](O)[C@H]2O)cc1F` [capecitabine, 5′-deoxy-5-fluoro-N-[(pentyloxy)carbonyl]-cytidine], the side effects result in data set [1] (capecitabine, can be severe) was “hand-and-foot syndrome (pain, swelling or redness of your hands or feet), diarrhea, nausea, vomiting, dehydration, sores in the mouth and throat, stomach area pain, tiredness or weakness, fever, and joint and muscle pain”. Further, the tumor cell proliferation result in data set [2] (capecitabine 300 mg/kg daily, first two weeks) was “reduced tumor cell proliferation”. For the same molecule, in data set [2] (during break periods), the “tumor cell proliferation between capecitabine cycles” value is “tumor cell proliferation rebound”. Besides, in the data set with tumor blood vessels, the angiogenesis result was “no change in the angiogenesis profile”. The elimination half-life result in data set [3] (human body) was “approximately ¾”. Moreover, the “5-FU AUC in tumors versus plasma” value in data set [4] is reported as 100-200 fold. In addition, the tumor growth entry in [5] was “only moderate reduction in tumor growth”.

Take `COc1cc2nccc(Oc3ccc(NC(=O)Nc4cc(C)on4)c(Cl)c3)c2cc1OC` [tivozanib, N-{2-chloro-4-[(6,7-dimethoxy-4-quinolyl)oxy]-phenyl}-N′-(5-methyl-3-isoxazolyl)urea]: the inhibitory activity result on VEGF receptor 3 was “picomolar”. In data set [1] (Phase 1, Phase 2 and Phase 3 clinical trials), the “most common side effects” value is “hypertension and dysphonia”. In addition, the “up-regulation of TP” value in data set [6] (BH216 tumors, 6 hours after tivozanib 5 mg/kg) is on record as “approximately 8 fold”. Also, in data set [6] (BH216 tumors, 16 hours post-dose, tivozanib 5 mg/kg), the TP expression result is recorded as “significant elevation in TP expression”. Further, the TP up-regulation entry in [6] (BH229 tumor, tivozanib 5 mg/kg) was “no TP up-regulation”; in data set [6] (BH281 tumor, tivozanib 5 mg/kg) it was “no TP up-regulation”. The angiogenesis entry with tumor blood vessels is recorded as “only a reduction in vessel size but not microvessel density”. Also, in data set [3] (chronic dosing), the “time for serum levels to reach steady state” value was 2-3 weeks. The half-life in [3] (human body) was 91.2 to 113 h. For the same molecule, the TP induction entry in [7] is reported as “TP induction was observed”; in data set [9], “significant TP induction”. Also, in data set [5], the tumor growth entry is given as “only moderate reduction in tumor growth”. Moreover, the clinical trial results in data set [8] is “positive results”. In addition, the antitumor activity entry in the data set with tumor was “exhibits antitumor activity”.

For `O=c1[nH]cc(F)c(=O)[nH]1` [fluorouracil, 5-fluoro-2,4-(1H,3H)-pyrimidinedione], in data set [3] (after capecitabine, day 14 vs day 1), the “area under the curve (AUC) of fluorouracil, higher at day 14 than day 1” value was 35%. In data set [3] (relative to parent compound), the “half-life of primary metabolite of capecitabine” value is “same approximate half-life of the parent compound”.

(Values after patent US20120252829A1, “TIVOZANIB AND CAPECITABINE COMBINATION THERAPY” (priority 2011, published 2012).)
